In data set [1] the test system is inflammation related proteins. In words: LC-MS/MS of lung proteins after LPS treatment (Example 3). It counts as in vivo. Conditions: male C57BL/6 mice, single i.p. injection 100 μg, lung 24 hours after dosing. The procedure: Male C57BL/6 mice were given a single intraperitoneal injection of lipopolysaccharide (LPS; 100 μg) or vehicle and tissues were harvested 24 hours after dosing. Lung tissues were lysed in 2% SDS buffer by ultrasonic probe and proteins extracted were resolved onto a SDS-PAGE, followed by a filter assisted trypsin digestion procedure. The protein digests were analysed by LC-MS/MS and the data were analysed using Peaks software for database search and Progenesis for quantification.

Data set [2] concerns drug metabolism related proteins. In words: LC-MS/MS protein expression profile of liver from induced mice (Example 1). In kind it is in vivo. The following applies: wild type mice liver; once daily i.p. for 3 days; TCPOBOP 1 mg/kg; versus corn oil; FIG. 3. The procedure:
In order to generate a drug metabolism-enhanced SILAC model, the protein expression profiles of liver from animals induced with TCPOBOP (1 mg/kg) or pregnenolone 16α-carbonitrile (PCN) or vehicle were examined. […] Animals were sacrificed 3 days after dosing, liver tissue excised and snap-frozen in liquid nitrogen for storage at −80° C.
Frozen liver tissue was thawed by addition of 10 volumes SDT lysis buffer (4% SDS, 0.1M DTT, 100 mM Tris-HCl pH 7.6) then homogenised by rotor-stator (2×5 sec at 20 k revolutions). Homogenate was heated to 95° C. for 5 minutes, sonicated (2×5 sec), then centrifuged at 16,000×g for 10 minutes. Supernatant (protein sample for analysis) was removed, aliquoted and stored at −80° C. until use. Protein samples (total of 30 μg/well) were electrophoresed through a 12% bis-tris gel in MOPS running buffer supplemented with antioxidant (all Life Technologies, Paisley, UK) alongside a Spectra multicolour broad range protein ladder (Thermo Fisher Scientific, Waltham, Mass.). Gels were stained with coomassie blue, destained, and then rehydrated with Milli-Q water. […] Peptide sample concentration was determined by Nanodrop (Thermo Fisher Scientific) and adjusted to 0.2 mg/mL in water containing 0.1% (vol/vol) trifluoroacetic acid. […] Data were analysed using SIEVE software in conjunction with Mascot database search engine. […]

The next data set relates to Cyp2B10. In words: SILAM LC-MS/MS quantification of Cyp2B10 in mouse liver (Example 2). The following applies: for L/H ratio of Cyp2B10 peptide NLQELLDYIGHSVEK: mice treated 1 mg/kg. The protocol:
This experiment was conducted to test the utility of the drug metabolism-enhanced reference in an actual SILAM protocol in comparison to normal SILAM protocol.
Liver protein extracts from wild type mice treated with TCPOBOP (1 mg/kg) or Ethoxyquin (1 mg/kg) or corn oil (control) were spiked with liver heavy protein extract from normal SILAM mice or drug metabolism pathway-enhanced SILAM mice according to the present invention.

The test system of the next data set is drug metabolism enzymes. Conditions: mouse, in vivo.
For a further data set, the system named is Cyp4a. The experiment in a line: Western blot of liver drug metabolism enzymes, Cyp4a. The following applies: C57BL/6 mice liver, once daily i.p. for 3 days, single inducer. For orientation: In western blotting, separated proteins are transferred to a membrane and probed.
A further data set concerns Cyp3a. The following applies: mouse, in vivo, ip.

Take lipopolysaccharide [LPS]: the “number of inflammation related proteins in the lung that can be quantified using the enhanced SILAM” value in data set [1] is given as “more than 100”. In addition, in data set [1] (versus vehicle), the “induction of the lung proteins listed in Table 4” value was “more than 5 times”.
For `Clc1cnc(Oc2ccc(Oc3ncc(Cl)cc3Cl)cc2)c(Cl)c1` [TCPOBOP], in data set [2], the “expression of drug metabolism related proteins relative to the total ion current” value is listed as “significantly increased the expression of many of these proteins”. In the data set with Cyp2B10 (from L/H ratios, pathway-enhanced SILAM), the “Cyp2B10 expression relative to Ethoxyquin” value came out at 4 fold. In addition, the “levels of the low-abundance cytochrome protein Cyp2B10” value with Cyp2B10 (general statement) is listed as “efficiently increase levels”. Besides, the “L/H ratio of Cyp2B10 peptide NLQELLDYIGHSVEK” value in the data set on Cyp2B10 (liver extract spiked with drug metabolism pathway-enhanced SILAM heavy liver extract, control L/H=0) is listed as 2.50; with Cyp2B10 (liver extract spiked with normal SILAM heavy extract (no heavy peptide signal)), “infinite”. Further, the “expression of proteins examined” value in the data set with drug metabolism enzymes was “enhanced significantly the expression of many proteins examined except for Cyp2e and Homx1”. The Cyp4a expression result with Cyp4a is on record as “moderate”.
With `CC(=O)[C@H]1[C@H](C#N)C[C@H]2[C@@H]3CC=C4C[C@@H](O)CC[C@]4(C)[C@H]3CC[C@@]21C` [PCN, pregnenolone 16α-carbonitrile], the “expression of drug metabolism related proteins relative to the total ion current” value in data set [2] is listed as “to a lesser extent, PCN, significantly increased the expression of many of these proteins”. Besides, the Cyp3a protein expression entry in the data set with Cyp3a is “noticeable”. Further, the “change to other Cyp proteins examined (other than Cyp3a)” value with drug metabolism enzymes (ip) is given as “no change”.

Values taken from patent US20150198612A1, “Isotopic Labelling of Proteins” (UNIVERSITY OF DUNDEE, priority 2012, published 2015).
